Measurements published in US7628979B1, “Use of calco oil blue V in bait formulations for marking and controlling subterranean termites” (The United States of America as represented by the …, priority 2005, dated 2009).

Legend:
C. formosanus = assay: Preliminary laboratory dose-range test of colored bait matrix; type: in vivo, Coptotermes formosanus
Experimental: (3) Incorporation of Nutrients. The dry colored alpha cellulose was then mixed with the nutritive liquid (described in U.S. Pat. No. 6,585,991 which is incorporated by reference in its entirety). The nutritive liquid was prepared by weighing 1.25 g lecithin (USB #18240), 0.450 g ergosterol (Sigma #E-6510), 3.75 g ethyl alcohol (Quantum MT #194A31), and 650 g drinking water (Barbe's dairy, West Wego, La.) into a 1 L glass bottle and mixing well using a glass bar. The opening of the bottle was covered with a foam stopper, the bottle cap was loosely placed on top of the stopper, and the stopper covered with foil. After autoclaving for 20 min at 120° C., the bottle was closed tightly and allowed to cool down. Under a laminar flow hood, yeast hydrolysate (ICN Biomed. #103304) was added to the lecithin-containing mixture using a sterile spatula and the mixture was shaken until the yeast hydrolysate was incorporated. The bottle was tightly closed. Using a sterile spatula, 667 ml lecithin-yeast hydrolysate-containing mixture was added to 333 g colored cellulose (at each of the calco oil blue V concentrations) and mixed well. The beaker was covered with foil and plastic to avoid contamination and loss of water. This mixture was stored at 5° C. up to 8 months or at room temperature for at least a month. The mixture was compacted and divided into pieces of about 25-50 g each at colorant concentrations of 50, 100, 225, 250, 500, and 750 ppm respectively. Chitin synthesis inhibitors such as Diflubenzuron (Ensystex) at a given concentration of 50, 100, 175, 200, and 250 ppm were individually weighed, dissolved in minimal amount of acetone (J. T. Baker #9010-03) in a 50 ml plastic tube, and added to the sterile liquid solution.
A concentration of 225 ppm Calco oil blue was effective as bait active ingredient taking a mean time to kill C. formosanus of 2.0 months under laboratory conditions.

[1] = tested on: Formosan subterranean termite workers; assay: Laboratory foraging-box bait test, groups of 1000 termite workers (colorant:CSI dose determination); type: in vivo, Coptotermes formosanus; conditions: for Groups of 1000 termite workers alive: of 12 boxes
Experimental: Under a laminar flow hood, 66 g colored cellulose powder at concentration of 50, 100, 225, 250, 500, or 750 ppm (0.010, 0.020, 0.045, 0.050, 0.100, or 0.150 g, respectively) from example 1 was mixed with 135 ml of sterile nutritional supplement (formulated as in example 1) in a 250 ml sterile glass beaker (prepared as reported by Rojas, M. G. and Morales-Ramos, J. A., “Bait matrix for delivery of chitin synthesis inhibitors to the Formosan subterranean termite [Isoptera: Rhinotermitidae],” J. Econ. Entomol., 94(2): 506-510 (2001)). A dose of 175 ppm of diflubenzuron was added to the formulations containing 50 and 100 ppm of calco oil blue. A lower dose of 50 ppm of diflubenzuron was added to the formulations containing 225 and 500 ppm of calco oil blue. The mixture was manually homogenized using a stainless steel spatula. To encase the bait matrix, tubes made of fibrous casing material (#124B; L.E.M. Products, Inc., Miamitown, Ohio) were cut into 150 mm long portions as reported by Rojas and Morales-Ramos (2001) supra. Fifty grams of bait matrix containing the blue colorant was compacted into one end of the inlet tube, at which point the open end of the inlet tube was closed with a rubber band. The bait casing was placed inside the foraging box adjacent to a 10 g piece of pine wood, taking care that they were partially covered with the sand. Control bait matrix was prepared minus blue colorant, and presented in the same was as the treatment matrix to Formosan subterranean termite workers taken from four different colonies, with 3 boxes per locality totaling twelve boxes of 1000 termites per treatment (Rojas and Morales-Ramos supra). All the experimental boxes were maintained under darkness at 27±1° C. and 90±2% relative humidity. Observations were done every 72 hours until all the termites died. The time to reach 100% mortality was measured and recorded. Mean comparisons among treatments and control were conducted.

[2] = tested on: Formosan subterranean termites; assay: In-field marking and control, bait at infested trees, sites 1 and 2; type: in vivo; conditions: for Bait consumption: 250 ppm bait
Excerpt: Formosan subterranean termite and native subterranean termite infested trees (Water Oaks and Legastrums) in New Orleans, La. were chosen for this study. Three sites were selected located at the Southern Regional Research Center campus. Site 1 was located near the service building next to an old water oak tree, site 2 was located in the compound area near ligastrum trees, and site 3 near ligastrum trees outside the compound area. Sites 1 and 2 were active with Formosan subterranean termites and site 3 with Eastern subterranean termites.
The colored bait matrix at 250 ppm was encapsulated as described above and placed directly in the base of the trees where termites were foraging, making sure that the encapsulated colored bait matrix was covered with soil or with a piece of wood or brick on top of it to prevent desiccation. The bait was periodically inspected for consumption and termite activity. The field study started in early August and was completed by the end of the following June. During winter (December-February) termite activity decreased considerably, but by April termite activity and foraging resumed and the blue colored matrix was replaced by bait formulation containing 250 ppm of chitin synthesis inhibitors to kill the colonies. Diflubenzuron was used in 2 of the sites and chlorfluazuron was used in the remaining site.

## CCCCC(CC)CNc1ccc(NCC(CC)CCCC)c2c1C(=O)c1ccccc1C2=O (stereo not shown) [Calco oil blue V, 9,10-anthracenedione, 1,4-bis[(2-ethylhexyl)amino]]
C. formosanus; 225 ppm Calco oil blue, laboratory conditions
  mean time to kill C. formosanus: 2.0 months
C. formosanus; 225 ppm blue colorant in combination with a chitin synthesis inhibitor (50-175 ppm)
  repellence to the termites: without any signs of repellence
C. formosanus; 225 ppm blue colorant in combination with a chitin synthesis inhibitor (50-175 ppm), preliminary results
  time to induce FS termite mortality: ≤ 2 months
C. formosanus; colorant doses higher than 500 ppm
  repellence to the termites: Some repellence was observed
C. formosanus; concentrations greater than 500 and up to 1000 ppm
  Bait consumption: bait consumption was reduced
C. formosanus; concentrations greater than 500 and up to 1000 ppm, compared with 225 ppm
  mean killing times: not significantly different
[1]; 1 Month, Calco oil blue V 50 ppm + Diflubenzuron 175 ppm
  Groups of 1000 termite workers alive: 11
[1]; 1 Month, Calco oil blue V 100 ppm + Diflubenzuron 175 ppm
  Groups of 1000 termite workers alive: 9
[1]; 1 Month, Calco oil blue V 225 ppm + Diflubenzuron 50 ppm
  Groups of 1000 termite workers alive: 7
[1]; 1 Month, Calco oil blue V 500 ppm + Diflubenzuron 50 ppm
  Groups of 1000 termite workers alive: 9
[1]; 2 Months, Calco oil blue V 50 ppm + Diflubenzuron 175 ppm
  Groups of 1000 termite workers alive: 10
[1]; 2 Months, Calco oil blue V 100 ppm + Diflubenzuron 175 ppm
  Groups of 1000 termite workers alive: 4
[1]; 2 Months, Calco oil blue V 225 ppm + Diflubenzuron 50 ppm
  Groups of 1000 termite workers alive: 2
[1]; 2 Months, Calco oil blue V 500 ppm + Diflubenzuron 50 ppm
  Groups of 1000 termite workers alive: 4
[1]; 3 Months, Calco oil blue V 50 ppm + Diflubenzuron 175 ppm
  Groups of 1000 termite workers alive: 5
[1]; 3 Months, Calco oil blue V 100 ppm + Diflubenzuron 175 ppm
  Groups of 1000 termite workers alive: 1
[1]; 3 Months, Calco oil blue V 225 ppm + Diflubenzuron 50 ppm
  Groups of 1000 termite workers alive: 0
[1]; 3 Months, Calco oil blue V 500 ppm + Diflubenzuron 50 ppm
  Groups of 1000 termite workers alive: 3
[1]; after a month and a half, 50 ppm or 100 ppm calco blue + 175 ppm diflubenzuron
  effect on molting of immature termites: immature termites molted prematurely
[1]; after a month, 225 ppm calco blue + 50 ppm diflubenzuron
  effect on molting of immature termites: immature termites molted prematurely
[1]; calco blue + diflubenzuron combination, depending on health and age of the colony
  time to mortality of a 1000-worker colony: about 4 weeks
[1]; calco blue concentrations above 750 ppm
  palatability of the bait: unpalatable
[1]; calco blue concentrations above 1000 ppm
  Bait consumption: consumption is almost nonexistent
[1]; concentration of blue >225 ppm
  time some termite colonies required to begin feeding on the formulations: more than 8 hrs
[1]; exposure to formulation containing calco oil blue V and diflubenzuron, control boxes alive after 3 months
  time until experimental colony was dead: about two months and a half
[2]; Site 1 (Water Oak), day 7
  Bait consumption: 0 g
[2]; Site 1 (Water Oak), day 14
  Bait consumption: 150 g
[2]; Site 1 (Water Oak), day 21
  Bait consumption: 350 g
[2]; Site 1 (Water Oak), day 27
  Bait consumption: 400 g
[2]; Site 1 (Water Oak), day 46
  Bait consumption: 400 g
[2]; Site 1 (Water Oak), day 56
  Bait consumption: 100 g
[2]; Site 1 (Water Oak), day 73
  Bait consumption: 0 g
[2]; Site 1 (Water Oak), day 83
  Bait consumption: 0 g
[2]; Site 1 (Water Oak), day 102
  Bait consumption: 0 g
[2]; Site 1 (Water Oak), day 159
  Bait consumption: 0 g
[2]; Site 1 (Water Oak), day 221
  Bait consumption: 0 g
[2]; Site 1 (Water Oak), day 251
  Bait consumption: 0 g
[2]; Site 1 (Water Oak), day 281
  Bait consumption: 0 g
[2]; Site 2 (Ligastrum), day 7
  Bait consumption: 0 g
[2]; Site 2 (Ligastrum), day 14
  Bait consumption: 200 g
[2]; Site 2 (Ligastrum), day 21
  Bait consumption: 450 g
[2]; Site 2 (Ligastrum), day 27
  Bait consumption: 300 g
[2]; Site 2 (Ligastrum), day 46
  Bait consumption: 250 g
[2]; Site 2 (Ligastrum), day 56
  Bait consumption: 350 g
[2]; Site 2 (Ligastrum), day 73
  Bait consumption: 250 g
[2]; Site 2 (Ligastrum), day 83
  Bait consumption: 300 g
[2]; Site 2 (Ligastrum), day 102
  Bait consumption: 400 g
[2]; Site 2 (Ligastrum), day 159
  Bait consumption: 200 g
[2]; Site 2 (Ligastrum), day 221
  Bait consumption: 0 g
[2]; Site 2 (Ligastrum), day 251
  Bait consumption: 0 g
[2]; Site 2 (Ligastrum), day 281
  Bait consumption: 0 g
[2]; field, 250 ppm
  time termite workers remained visibly colored after removing the blue colored bait formulation: 1 week
[2]; field, 250 ppm colored bait matrix without diflubenzuron
  marking of termites after feeding on colored bait matrix: visibly colored blue
[2]; field, calco oil blue bait followed by bait with 250 ppm chitin synthesis inhibitors
  period to eliminate the colonies: 2 months
[2]; field, matrix with calco oil blue V alone, 250 ppm
  effect on termite colonies and termite activity: did not kill the termite colonies nor reduce termite activity
